Laboratory results from publication PMC6647725 (Analytical and Bioanalytical Chemistry, 2019).
Each block holds one molecule with its values, some of them ahead of it.

Tests used:
[1] = Stability of stock solutions at − 20 °C; assay type: physicochemical; details: 1 mg/mL stock solution, storage at − 20 °C
Experimental: (§1) The stability of each analyte was investigated in all the previously mentioned matrices. For plasma (both human and mouse), the stability was determined in triplicate at two concentration levels, QC L and QC H, whereas for mouse tissue homogenates only at QC M (except the brain in one stability condition). For all matrices, the following stability conditions were assessed: short term at room temperature (RT), long term at − 20 °C, and after 3 freeze-thaw (F/T) cycles at − 20 °C/RT. Furthermore, for tissue homogenates, the short-term stability in ice-water, long-term stability at − 70 °C, and F/T stability at − 70 °C/ice-water were also evaluated. Additionally, the stability in the final extract was tested. For this, the QC L and QC H final extracts from the plasma, brain, and spleen and the QC M final extract from the liver, kidney and small intestine were stored at 4–8 °C up to 3 days. Lastly, the stability of the stock solutions at − 20 °C was investigated.

[2] = Stability in human plasma and its final extract (LC-MS/MS); assay type: in vitro ADME
Experimental: (§2) 50 μL of the sample (either from a preclinical study, calibration standard, or QC) was mixed with 25 μL of IS-working solution, followed by 150 μL of ACN for protein precipitation. Samples were vortex mixed and centrifuged at 23,100g for 10 min at 20 °C. An aliquot of 80 μL of supernatant was diluted with 120 μL of 10 mM ammonium bicarbonate in water:MeOH (1:1 v/v). The final extract was transferred to a glass vial with insert, and 10 μL was injected to the LC-MS/MS system for analysis.
as §1, with “For this, the QC L and QC H final extracts from the plasma, brain, and spleen and the QC M final extract from the liver, kidney and small intestine were stored at 4–8 °C up to 3 days.” left out

[3] = Stability in mouse plasma and its final extract (LC-MS/MS); assay type: in vitro ADME
Experimental: as §2
as §1, with “For this, the QC L and QC H final extracts from the plasma, brain, and spleen and the QC M final extract from the liver, kidney and small intestine were stored at 4–8 °C up to 3 days.” left out

[4] = Stability in mouse liver homogenate and its final extract; assay type: in vitro ADME; details: nominal 50 ng/mL
Experimental: as §1, with “After weighing the complete organ, a volume of 3 mL of this solution was added to the liver and small intestine, 2 mL to the kidneys, and 1 mL to the brain and spleen. The tissue/BSA ratio (w/v) of the homogenates were approximately 0.4:1 for the brain and liver, 0.1:1 for the spleen, 0.2:1 for the kidneys, and 0.25:1 for the small intestine. All samples were shaken in the Fast Prep at 6.0 m/s during 60 s. The” for “The”

[5] = Stability in mouse kidney homogenate and its final extract; assay type: in vitro ADME; details: nominal 50 ng/mL
Experimental: as §1, with “After weighing the complete organ, a volume of 3 mL of this solution was added to the liver and small intestine, 2 mL to the kidneys, and 1 mL to the brain and spleen. The tissue/BSA ratio (w/v) of the homogenates were approximately 0.4:1 for the brain and liver, 0.1:1 for the spleen, 0.2:1 for the kidneys, and 0.25:1 for the small intestine. All samples were shaken in the Fast Prep at 6.0 m/s during 60 s. The” for “The”

[6] = Stability in mouse brain homogenate and its final extract; assay type: in vitro ADME
Experimental: as §1, with “After weighing the complete organ, a volume of 3 mL of this solution was added to the liver and small intestine, 2 mL to the kidneys, and 1 mL to the brain and spleen. The tissue/BSA ratio (w/v) of the homogenates were approximately 0.4:1 for the brain and liver, 0.1:1 for the spleen, 0.2:1 for the kidneys, and 0.25:1 for the small intestine. All samples were shaken in the Fast Prep at 6.0 m/s during 60 s. The” for “The”

[7] = Stability in tissue homogenates; assay type: in vitro ADME, mouse; details: for stability in tissue homogenates (in words): all tissue homogenates and conditions of Table 6
Experimental: as §1

CDK4 = details: cited from earlier work
[8] = final extract (listed under human plasma), 4–8 °C, 4 d, nominal 5 ng/mL
[9] = human plasma, 3 F/T (− 20 °C/RT), nominal 5 ng/mL
[10] = human plasma, RT, 3 d, nominal 5 ng/mL
[11] = human plasma, − 20 °C, 12 m, nominal 5 ng/mL
[12] = mouse plasma, − 20 °C, 3 m, nominal 150 ng/mL
[13] = final extract (listed under liver homogenate), 4–8 °C, 2 d
[14] = liver homogenate, 3 F/T (RT, − 20 °C)
[15] = liver homogenate, 3 F/T (− 70 °C, ice/water bath)
[16] = liver homogenate, LT − 20 °C, 1 m
[17] = liver homogenate, LT − 70 °C, 1 m
[18] = liver homogenate, ice/water bath, 3 h
[19] = final extract (listed under kidney homogenate), 4–8 °C, 2 d
[20] = kidney homogenate, 3 F/T (RT, − 20 °C)
[21] = kidney homogenate, 3 F/T (− 70 °C, ice/water bath)
[22] = kidney homogenate, LT − 20 °C, 1 m
[23] = kidney homogenate, LT − 70 °C, 1 m
[24] = kidney homogenate, ice/water bath, 3 h
[25] = brain homogenate, 3 F/T (RT, − 20 °C), nominal 50 ng/mL
[26] = brain homogenate, 3 F/T (− 70 °C, ice/water bath), nominal 50 ng/mL
[27] = brain homogenate, LT − 20 °C, 1 m, nominal 50 ng/mL
[28] = brain homogenate, LT − 70 °C, 1 m, nominal 50 ng/mL
[29] = brain homogenate, RT, 1 d, nominal 5 ng/mL
[30] = brain homogenate, RT, 1 d, nominal 150 ng/mL
[31] = brain homogenate, ice/water bath, 3 h, nominal 50 ng/mL
[32] = final extract (listed under brain homogenate), 4–8 °C, 3 d, nominal 5 ng/mL
[33] = final extract (listed under brain homogenate), 4–8 °C, 3 d, nominal 150 ng/mL
[34] = final extract (listed under human plasma), 4–8 °C, 4 d, nominal 150 ng/mL
[35] = human plasma, RT, 3 d, nominal 150 ng/mL
[36] = final extract (listed under mouse plasma), 4–8 °C, 4 d, nominal 5 ng/mL
[37] = final extract (listed under mouse plasma), 4–8 °C, 4 d, nominal 150 ng/mL
[38] = mouse plasma, 3 F/T (− 20 °C/RT), nominal 5 ng/mL
[39] = mouse plasma, 3 F/T (− 20 °C/RT), nominal 150 ng/mL
[40] = mouse plasma, RT, 3 d, nominal 150 ng/mL
[41] = mouse plasma, − 20 °C, 3 m, nominal 5 ng/mL

- Mean concentration ([2]; human plasma, 2 F/T (− 20 °C/RT), nominal 5 ng/mL): 4.7 ng/mL
- Accuracy (% Bias) [3, 12]: 4.7%
- Mean concentration [4, 14]: 47.7 ng/mL
- Accuracy (% Bias) [4, 15]: 0.1%
- Mean concentration [4, 16]: 32.4 ng/mL
- Mean concentration ([4]; liver homogenate, RT, 1 d): 41.9 ng/mL
- Mean concentration [4, 18]: 45.4 ng/mL
- Mean concentration [5, 20]: 15.7 ng/mL
- Mean concentration [5, 22]: 31.5 ng/mL
- Mean concentration ([5]; kidney homogenate, RT, 1 d): 0.91 ng/mL
- Mean concentration [6, 25]: 48.8 ng/mL
- Accuracy (% Bias) [6, 26]: 0.1%
- Accuracy (% Bias) [6, 28]: 4.6%
- Mean concentration [6, 28]: 52.3 ng/mL
- Mean concentration [6, 30]: 129.7 ng/mL
- Mean concentration [6, 31]: 49.4 ng/mL
- Accuracy (% Bias) [6, 32]: 2.7%
- Accuracy (% Bias) [6, 33]: 3.1%
- stability in tissue homogenates (in words) [7]: showed instability in tissue homogenates
Structure (SMILES): CN(C)C(=O)c1cc2cnc(Nc3ccc(N4CCNCC4)cn3)nc2n1C1CCCC1 [Ribociclib]

- Accuracy (% Bias) [2, 8]: 4.5%
- Accuracy (% Bias) [2, 34]: 7.1%
- Accuracy (% Bias) [2, 35]: 6.2%
- Accuracy (% Bias) [3, 36]: 8.1%
- Accuracy (% Bias) [3, 37]: 5.1%
- Accuracy (% Bias) [3, 39]: 7.6%
- Accuracy (% Bias) [3, 40]: 6.2%
- Accuracy (% Bias) [3, 41]: 1.0%
- Accuracy (% Bias) [3, 12]: 21.8%
- Mean concentration [4, 14]: 52.5 ng/mL
- Accuracy (% Bias) [4, 15]: 0.1%
- Accuracy (% Bias) [4, 16]: 1.4%
- Accuracy (% Bias) [4, 18]: 3.8%
- Mean concentration [4, 18]: 51.9 ng/mL
- Accuracy (% Bias) [5, 21]: 3.6%
- Mean concentration [5, 21]: 51.8 ng/mL
- Accuracy (% Bias) [5, 23]: 5.5%
- Mean concentration [5, 23]: 52.7 ng/mL
- Accuracy (% Bias) ([5]; kidney homogenate, RT, 3 h): 1.7%
- Accuracy (% Bias) [6, 25]: 6.9%
- Mean concentration [6, 25]: 53.4 ng/mL
- Accuracy (% Bias) [6, 26]: 2.2%
- Accuracy (% Bias) [6, 27]: 3.9%
- Mean concentration [6, 27]: 52.0 ng/mL
- Mean concentration [6, 28]: 52.1 ng/mL
- Accuracy (% Bias) [6, 29]: 6.2%
- Mean concentration [6, 29]: 5.3 ng/mL
- Accuracy (% Bias) [6, 30]: 11.3%
- Mean concentration [6, 30]: 167 ng/mL
- Accuracy (% Bias) [6, 31]: 10.4%
- Mean concentration [6, 31]: 55.2 ng/mL
- Accuracy (% Bias) [6, 33]: 8.7%
- stability in tissue homogenates (in words) [7]: stable in all matrices at all conditions
Structure (SMILES): CCN1CCN(Cc2ccc(Nc3ncc(F)c(-c4cc(F)c5nc(C)n(C(C)C)c5c4)n3)nc2)CC1 [Abemaciclib]
